Laboratory results published in patent US7718677B2, “Methods and compositions for reduction of side effects of therapeutic treatments” (priority 2007, dated 2010).
Values joined by “and” are separate entries in the source; they are usually repeats but may differ in a detail not shown here. Equal values may be shown once. Read-outs that look alike come from different tables or passages of the source.

Legend:
[1] = test system: 6-hydroxydopamine-lesioned rats; conditions: for L-dopa-induced AIMs, time course: L-dopa 8 then 12 mg/kg ip, ANOVA P<0.001; for L-dopa-induced AIMs, crossover to nicotine: rats initially without nicotine then given nicotine
Description: Animals. Experiments were performed using male Sprague-Dawley rats (initial weight 250 g) purchased from Charles River Laboratories (Gilroy, Calif.). They were housed 2 per cage under a 12-12 h light-dark cycle in a temperature-controlled room with free access to food and water. Three to four days after arrival, the rats were unilaterally lesioned with 6-hydroxydopamine as previously described (Cenci et al., 1998 Eur J Neurosci 10:2694-2706.; Cenci et al., 2002 Nat Rev Neurosci 3:574-579). During the lesioning procedure the rats were maintained under isofluorane anesthesia (2%). They were placed in a Kopf stereotaxic instrument and burr holes drilled through the skull at the following coordinates relative to the Bregma and dural surface: (1) anteroposterior, −4.4; lateral, 1.2; ventral, 7.8; tooth bar at −2.4; (2) anteroposterior, −4.0; lateral, 0.75; ventral, 8.0; tooth bar at +3.4 (Cenci et al., 1998 Eur J Neurosci 10:2694-2706.; Cenci et al., 2002 Nat Rev Neurosci 3:574-579). 6-Hydroxydopamine was dissolved in 0.02% ascorbic acid/saline at a concentration of 3 ug/ul. Two μl was stereotaxically injected at each of these sites for a total of […] into the right ascending dopamine fiber bundle. Infusion of 6-hydroxydopamine into the target area was over a 2-min period, with the cannula maintained at the site of injection for a further 2 min. All procedures conformed to the NIH Guide for the Care and Use of Laboratory Animals and were approved by the Institutional Animal Care and Use Committee.
Behavioral testing. Two and three weeks after lesioning, rats were tested for rotational behavior in an automated behavioral measurement apparatus (ROTOMAX, AccuScan Instruments Inc. Columbus, Ohio, USA). Each rat was placed in a cylindrical glass chamber for 30 min for acclimatization, after which amphetamine (4.0 mg/kg ip) was administered. The behavior was monitored for an additional 90 min, with rats making at least 100 ipsilateral turns used for further study.
Nicotine treatment. When the behavioral testing was completed, rats were treated with nicotine via the drinking water that yields an intermittent dosing regimen or via minipump that provides a constant level of nicotine. For administration via the drinking water, rats were first provided with a solution containing 1% saccharin (Sigma Chemical Co., St. Louis, Mo.) to mask the bitter taste of nicotine. After 2-3 days of acclimation, nicotine (free base, Sigma Chemical Co., St. Louis, Mo.) was added to the saccharin-containing drinking solution of the treated group (pH 7.0). Nicotine was initially given at a concentration of 25 μg/ml nicotine for 2 days.
In a separate series of experiments, rats were given nicotine continuously via Alzet minipumps (model 2004-200 μl), which secrete nicotine for 28 days. These were subcutaneously implanted according to the manufacturer's instruction. Pumps were filled with either sterilized water or nicotine base in water to deliver 2 mg/kg/d.
L-dopa treatment. Three weeks after initiation of the 50 ug/ml nicotine dose, the rats received single daily intraperitoneal injections of 8 mg/kg L-dopa methyl ester plus 15 mg/kg benserazide (both from Sigma Chemical Co., St. Louis, Mo.) (Cenci et al., 1998 Eur J Neurosci 10:2694-2706.; Cenci et al., 2002 Nat Rev Neurosci 3:574-579). After 3 weeks of daily L-dopa dosing, abnormal involuntary movements (AIMs) were quantified. These included (1) axial dystonia, contralateral twisted posturing of the neck and upper body; (2) orolingual dyskinesia, stereotyped jaw movements and contralateral tongue protrusion; and (3) forelimb dyskinesia, repetitive rhythmic jerks or dystonic posturing of the contralateral forelimb and/or grabbing movements of the contralateral paw (Cenci et al., 1998 Eur J Neurosci 10:2694-2706.; Cenci et al., 2002 Nat Rev Neurosci 3:574-579; Carta et al., 2006 Neurochem 96:1718-1727).

[2] = nicotine in Gatorade up to 650 μg/ml
Description: Nicotine treatment: All monkeys (n=7) were then given a drinking solution for 3 weeks consisting of commercially available orange Gatorade® to mask nicotine's bitter taste (FIG. 1). The control group (n=4) was continued on Gatorade® only, while nicotine (free base) was added to the Gatorade of the treated group (n=3). Nicotine dosing was started at 50 μg/ml for 1 week, 150 μg/ml for 1 week, with the concentration increased by 150 μg increments/week over the next few weeks, up to 650 μg/ml (FIG. 1).

[3] = test system: MPTP-lesioned squirrel monkeys; test: Parkinsonism rating on or off levodopa in MPTP-lesioned monkeys; type: in vivo, Saimiri sciureus; conditions: for Parkinson Ratings Expt 1 / Parkinson Ratings Expt 2 (crossover): individual animals, scale 0-28; for Parkinson Ratings Mean ± SE (n): n=5
Description: 1-Methyl-4-phenyl-1,2,3,6-tetrahydropyridine (MPTP) administration: Prior to lesioning, the animals were allowed to acclimate to the colony and rated for parkinsonism as described (Langston et al. Ann Neurol. 2000; 47:S79-89). All values were within the normal range. The monkeys were then injected subcutaneously with 2.0 mg/kg MPTP (Sigma, St-Louis, Mo.) dissolved in saline. The animals were rated for parkinsonism 3-4 weeks after MPTP administration. The disability scores ranged from 0 (normal) to 28 for a severely parkinsonian animal. Animals were assessed for 1) spatial hypokinesia (reduction in use of the available cage space), 2) body bradykinesia (increased slowness in body movement), 3) left and 4) right manual dexterity, 5) balance, 6) freezing and 7) action tremor. If they were not parkinsonian, MPTP injection (1.0-2.0 mg/kg) was repeated from 2-5 times for total doses of 3.5 to 13.5 mg/kg. Despite multiple MPTP dosing, two of the animals were not stably parkinsonian.
Data analyses: The levodopa treatment protocol used in the present study involved a 5-day-on/2-day-off schedule. Parkinsonian ratings were done on Monday and Friday of each week, with the score averaged over the two days. Dyskinesias ratings were determined by averaging the scores on Wednesday and Thursday of each week. All values are expressed as the mean±SE of the indicated number of animals. Results were compared using paired t-tests or analysis of variance (ANOVA) followed by Bonferroni multiple comparison post hoc test, using Prism® program (GraphPad Software, Inc, San Diego, Calif.). A level of 0.05 was considered significant.
White bars indicate no nicotine treatment and black bars indicate nicotine treatment. Parkinsonism was evaluated immediately before the afternoon L-dopa dose and 1.5 to 2 hours after L-dopa treatment, when a maximal antiparkinsonian effect is anticipated. Two of the seven animals in the study were not parkinsonian, and therefore were not included in this analysis. Error bars are the means±standard error of five animals before and after crossover of nicotine treatment. **p<0.01, as compared with the same group with no L-dopa treatment by a Mann-Withney test.

[4] = test system: 6-hydroxydopamine-lesioned rats; conditions: ROTOMAX, AccuScan System; n=9; saccharin group 8.2+3.7, no difference
Description: Behavioral assessment of the lesion. As an index of nigrostriatal damage, the rats were tested for rotational behavior 3 and 4 weeks after lesioning. This was done using an automated behavioral measurement apparatus that has four cylindrical chambers (50 cm height×34 cm diameter) (ROTOMAX, AccuScan Instruments Inc. Columbus, Ohio, USA). A rat was placed in one of the chambers for 30 min for acclimatization, after which time amphetamine (4 mg/kg ip) was administered as previously described (Visanji et al., 2006, Neuropharmacology 51:506-516). […] The rats were tested a second time one week later and the data from the two testing periods pooled.

[5] = on levodopa treatment, 1.5-2 hours after dosing

CN1CCCC1c1cccnc1 (centres unmarked) [Nicotine, S-3-(1-methyl-2-pyrrolidinyl)pyridine]
body weight (minipump 2 mg/kg/d nicotine vs vehicle): similar
fluid intake (nicotine in saccharin drinking solution vs vehicle-treated): drank less
body weight (nicotine via drinking water, continued dosing, rats appeared healthy): small difference
individual AIM components (total, axial, oral, forelimb) ([1]; constant nicotine 2 mg/kg/d via minipump vs no nicotine, FIG. 15): reduced
L-dopa-induced AIMs, time course ([1]; continuous nicotine 2 mg/kg/d via minipump, FIG. 14): significant effect
AIMs development after removal of nicotine ([1]; drinking water, rats initially on nicotine then given saccharin, FIG. 13): increase
L-dopa-induced AIMs, crossover to nicotine ([1]; drinking water, FIG. 13): reduced
L-dopa-induced AIMs, time course ([1]; intermittent nicotine 50 μg/ml in drinking water, FIG. 11): significant effect
individual AIM components (total, axial, oral, forelimb) ([1]; intermittent nicotine in drinking solution vs saccharin only, FIG. 12): reduced
AIMs development after removal of nicotine ([1]; minipump, rats initially on nicotine then given minipumps containing no nicotine, FIG. 16): increase
L-dopa-induced AIMs, crossover to nicotine ([1]; minipump, FIG. 16): reduced
effects on body weight or fluid intake [2]: no significant effects
Parkinson Ratings Expt 1 ([3]; no levodopa treatment): 5.2 and 6.6
Parkinson Ratings Expt 2 (crossover) ([3]; no levodopa treatment): 4.1 and 6.4 and 5.9
Parkinson Ratings Mean ± SE (n) ([3]; no levodopa treatment): 5.6 ± 0.5 (5)
Parkinson Ratings Expt 1 [3, 5]: 1.7 and 1.5
Parkinson Ratings Expt 2 (crossover) [3, 5]: 0.8 (2×) and 0.4
Parkinson Ratings Mean ± SE (n) [3, 5]: 1.0 ± 0.2 (5)
effect on parkinsonism ([3]; on or off levodopa treatment): did not affect
extent of turning [4]: 8.4+6.7
